Blank lines part the entries; values can stand above or below the molecule they belong to.
Tests used:
[1] = target: T1, Androgen receptor (Rattus norvegicus, UniProt P15207); type: functional
T1 sequence (P15207 whole entry): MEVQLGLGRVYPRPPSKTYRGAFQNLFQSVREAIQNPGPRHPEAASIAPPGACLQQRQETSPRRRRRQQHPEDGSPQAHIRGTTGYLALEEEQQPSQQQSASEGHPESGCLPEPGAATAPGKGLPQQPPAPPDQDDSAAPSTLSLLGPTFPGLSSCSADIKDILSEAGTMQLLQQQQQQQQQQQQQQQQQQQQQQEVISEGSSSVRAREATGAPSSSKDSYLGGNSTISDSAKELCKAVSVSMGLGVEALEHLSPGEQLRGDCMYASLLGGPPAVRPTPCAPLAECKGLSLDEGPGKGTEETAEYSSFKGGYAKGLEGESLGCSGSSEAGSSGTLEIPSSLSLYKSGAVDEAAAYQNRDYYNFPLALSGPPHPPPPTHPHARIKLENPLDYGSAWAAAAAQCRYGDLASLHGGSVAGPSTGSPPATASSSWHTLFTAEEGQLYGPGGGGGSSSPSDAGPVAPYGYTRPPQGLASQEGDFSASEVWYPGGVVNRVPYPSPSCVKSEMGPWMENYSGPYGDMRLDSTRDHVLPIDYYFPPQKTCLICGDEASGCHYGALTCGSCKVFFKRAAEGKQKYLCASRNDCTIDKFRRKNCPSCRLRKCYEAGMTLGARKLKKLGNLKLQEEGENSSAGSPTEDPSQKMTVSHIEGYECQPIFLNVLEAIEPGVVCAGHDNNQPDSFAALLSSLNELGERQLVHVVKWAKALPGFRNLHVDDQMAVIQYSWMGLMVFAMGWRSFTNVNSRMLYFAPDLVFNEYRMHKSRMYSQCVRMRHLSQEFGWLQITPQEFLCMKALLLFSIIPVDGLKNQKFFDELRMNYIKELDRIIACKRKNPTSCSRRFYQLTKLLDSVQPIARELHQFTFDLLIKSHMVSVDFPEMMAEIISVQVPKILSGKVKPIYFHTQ

[2] = target: T2, Muscarinic acetylcholine receptor M5 (Homo sapiens, UniProt P08912)
T2 sequence (P08912 whole entry): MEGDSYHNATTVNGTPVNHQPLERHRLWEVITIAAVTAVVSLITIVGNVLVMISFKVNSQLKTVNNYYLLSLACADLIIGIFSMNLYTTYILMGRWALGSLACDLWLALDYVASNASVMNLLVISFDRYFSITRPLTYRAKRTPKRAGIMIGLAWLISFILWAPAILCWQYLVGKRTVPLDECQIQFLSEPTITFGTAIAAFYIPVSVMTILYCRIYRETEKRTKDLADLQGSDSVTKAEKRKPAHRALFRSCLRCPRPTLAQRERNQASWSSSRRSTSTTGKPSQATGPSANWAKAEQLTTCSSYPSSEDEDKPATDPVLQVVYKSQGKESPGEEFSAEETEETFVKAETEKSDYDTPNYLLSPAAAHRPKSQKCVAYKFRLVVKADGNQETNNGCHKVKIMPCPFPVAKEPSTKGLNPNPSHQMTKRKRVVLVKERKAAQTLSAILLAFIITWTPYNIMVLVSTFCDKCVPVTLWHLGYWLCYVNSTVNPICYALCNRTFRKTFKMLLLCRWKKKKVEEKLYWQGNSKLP

[3] = target: 5-hydroxytryptamine receptor 5A (Homo sapiens, UniProt P47898)
[4] = target: Rod cGMP-specific 3',5'-cyclic phosphodiesterase subunit alpha (Homo sapiens, UniProt P16499); type: functional
[5] = target: T3, Thromboxane A2 receptor (Homo sapiens, UniProt P21731); type: functional
T3 sequence (P21731 whole entry): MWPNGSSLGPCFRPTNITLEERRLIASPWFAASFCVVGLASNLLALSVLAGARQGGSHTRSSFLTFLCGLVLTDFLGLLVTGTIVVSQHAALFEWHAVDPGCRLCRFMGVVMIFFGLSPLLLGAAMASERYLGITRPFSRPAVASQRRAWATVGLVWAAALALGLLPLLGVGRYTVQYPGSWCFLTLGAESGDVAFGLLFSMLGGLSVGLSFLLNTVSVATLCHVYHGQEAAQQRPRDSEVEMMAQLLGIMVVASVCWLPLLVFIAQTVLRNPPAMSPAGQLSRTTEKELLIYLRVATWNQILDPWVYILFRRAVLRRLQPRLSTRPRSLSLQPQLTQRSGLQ

[6] = target: Vascular endothelial growth factor receptor 2 (Homo sapiens, UniProt P35968); type: functional
[7] = target: T3, Thromboxane A2 receptor; type: functional, cell-based
[8] = target: Beta-1 adrenergic receptor (Homo sapiens, UniProt P08588); type: functional, cell-based
[9] = target: T4, Peroxisome proliferator-activated receptor gamma (Homo sapiens, UniProt P37231); type: functional
T4 sequence (P37231 whole entry): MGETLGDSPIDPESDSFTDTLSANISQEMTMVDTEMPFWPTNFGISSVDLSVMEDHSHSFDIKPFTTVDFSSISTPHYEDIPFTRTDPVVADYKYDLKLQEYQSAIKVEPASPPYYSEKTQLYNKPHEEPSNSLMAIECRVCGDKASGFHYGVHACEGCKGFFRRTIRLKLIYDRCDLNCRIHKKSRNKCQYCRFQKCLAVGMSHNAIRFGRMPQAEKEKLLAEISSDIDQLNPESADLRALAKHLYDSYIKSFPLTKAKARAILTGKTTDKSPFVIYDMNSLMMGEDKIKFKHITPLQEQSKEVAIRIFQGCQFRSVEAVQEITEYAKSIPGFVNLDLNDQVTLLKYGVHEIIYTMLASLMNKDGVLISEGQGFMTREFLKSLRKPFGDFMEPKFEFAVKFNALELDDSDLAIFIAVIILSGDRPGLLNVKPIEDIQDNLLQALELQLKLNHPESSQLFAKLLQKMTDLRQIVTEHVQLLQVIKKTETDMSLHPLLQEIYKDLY

[10] = target: T4, Peroxisome proliferator-activated receptor gamma; type: functional; remark: listed apart in the source
[11] = target: Sodium channel protein type 5 subunit alpha (Homo sapiens, UniProt Q14524); type: functional, cell-based
[12] = target: Hydroxycarboxylic acid receptor 2 (Homo sapiens, UniProt Q8TDS4)
Further: assay procedure not described here.

Sequence of 5-hydroxytryptamine receptor 5A (P47898 whole entry): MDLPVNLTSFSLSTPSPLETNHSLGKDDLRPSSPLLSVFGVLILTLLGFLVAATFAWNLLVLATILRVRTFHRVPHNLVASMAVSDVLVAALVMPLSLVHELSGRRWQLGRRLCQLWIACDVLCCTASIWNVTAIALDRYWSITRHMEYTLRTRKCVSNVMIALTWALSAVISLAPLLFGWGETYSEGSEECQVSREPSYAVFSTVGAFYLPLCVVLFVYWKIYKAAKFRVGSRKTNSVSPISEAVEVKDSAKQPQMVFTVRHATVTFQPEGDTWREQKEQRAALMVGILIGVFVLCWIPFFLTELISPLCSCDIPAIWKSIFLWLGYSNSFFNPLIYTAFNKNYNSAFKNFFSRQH
Sequence of Beta-1 adrenergic receptor (P08588 whole entry): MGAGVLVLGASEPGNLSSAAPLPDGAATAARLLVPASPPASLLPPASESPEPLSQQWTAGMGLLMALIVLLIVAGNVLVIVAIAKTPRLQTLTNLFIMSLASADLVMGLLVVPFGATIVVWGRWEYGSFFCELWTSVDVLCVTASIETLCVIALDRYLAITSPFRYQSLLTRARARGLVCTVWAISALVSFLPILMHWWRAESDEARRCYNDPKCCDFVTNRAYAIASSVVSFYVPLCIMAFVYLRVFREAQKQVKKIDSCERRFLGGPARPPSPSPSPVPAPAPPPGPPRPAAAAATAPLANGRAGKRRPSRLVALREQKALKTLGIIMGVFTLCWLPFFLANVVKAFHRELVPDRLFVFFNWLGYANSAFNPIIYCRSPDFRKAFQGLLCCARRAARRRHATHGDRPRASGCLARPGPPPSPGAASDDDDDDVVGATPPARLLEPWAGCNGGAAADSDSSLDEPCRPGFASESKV
Sequence of Rod cGMP-specific 3',5'-cyclic phosphodiesterase subunit alpha (P16499 whole entry): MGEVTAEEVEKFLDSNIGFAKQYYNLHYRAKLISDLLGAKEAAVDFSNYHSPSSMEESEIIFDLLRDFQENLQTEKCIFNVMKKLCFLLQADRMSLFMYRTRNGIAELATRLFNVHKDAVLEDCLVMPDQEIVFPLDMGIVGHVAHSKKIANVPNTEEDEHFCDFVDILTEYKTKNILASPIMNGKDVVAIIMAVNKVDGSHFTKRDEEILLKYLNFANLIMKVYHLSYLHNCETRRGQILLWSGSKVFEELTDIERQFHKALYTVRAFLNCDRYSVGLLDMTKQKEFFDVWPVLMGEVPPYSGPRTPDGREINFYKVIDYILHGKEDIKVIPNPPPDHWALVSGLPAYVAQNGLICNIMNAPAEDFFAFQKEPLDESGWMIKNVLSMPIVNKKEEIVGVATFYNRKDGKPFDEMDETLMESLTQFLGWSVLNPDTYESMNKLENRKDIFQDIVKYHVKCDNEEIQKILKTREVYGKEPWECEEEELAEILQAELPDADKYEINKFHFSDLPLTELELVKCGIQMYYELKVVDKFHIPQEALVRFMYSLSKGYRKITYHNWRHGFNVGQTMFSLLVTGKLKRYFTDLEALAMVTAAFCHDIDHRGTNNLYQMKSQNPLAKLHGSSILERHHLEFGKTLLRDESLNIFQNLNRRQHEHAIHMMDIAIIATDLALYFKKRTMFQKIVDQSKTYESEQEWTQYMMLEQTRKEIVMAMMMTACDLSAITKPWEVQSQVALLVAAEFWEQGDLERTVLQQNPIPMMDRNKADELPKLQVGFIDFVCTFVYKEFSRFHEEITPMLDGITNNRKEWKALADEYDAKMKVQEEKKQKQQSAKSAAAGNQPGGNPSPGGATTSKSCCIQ
Sequence of Sodium channel protein type 5 subunit alpha (Q14524 whole entry): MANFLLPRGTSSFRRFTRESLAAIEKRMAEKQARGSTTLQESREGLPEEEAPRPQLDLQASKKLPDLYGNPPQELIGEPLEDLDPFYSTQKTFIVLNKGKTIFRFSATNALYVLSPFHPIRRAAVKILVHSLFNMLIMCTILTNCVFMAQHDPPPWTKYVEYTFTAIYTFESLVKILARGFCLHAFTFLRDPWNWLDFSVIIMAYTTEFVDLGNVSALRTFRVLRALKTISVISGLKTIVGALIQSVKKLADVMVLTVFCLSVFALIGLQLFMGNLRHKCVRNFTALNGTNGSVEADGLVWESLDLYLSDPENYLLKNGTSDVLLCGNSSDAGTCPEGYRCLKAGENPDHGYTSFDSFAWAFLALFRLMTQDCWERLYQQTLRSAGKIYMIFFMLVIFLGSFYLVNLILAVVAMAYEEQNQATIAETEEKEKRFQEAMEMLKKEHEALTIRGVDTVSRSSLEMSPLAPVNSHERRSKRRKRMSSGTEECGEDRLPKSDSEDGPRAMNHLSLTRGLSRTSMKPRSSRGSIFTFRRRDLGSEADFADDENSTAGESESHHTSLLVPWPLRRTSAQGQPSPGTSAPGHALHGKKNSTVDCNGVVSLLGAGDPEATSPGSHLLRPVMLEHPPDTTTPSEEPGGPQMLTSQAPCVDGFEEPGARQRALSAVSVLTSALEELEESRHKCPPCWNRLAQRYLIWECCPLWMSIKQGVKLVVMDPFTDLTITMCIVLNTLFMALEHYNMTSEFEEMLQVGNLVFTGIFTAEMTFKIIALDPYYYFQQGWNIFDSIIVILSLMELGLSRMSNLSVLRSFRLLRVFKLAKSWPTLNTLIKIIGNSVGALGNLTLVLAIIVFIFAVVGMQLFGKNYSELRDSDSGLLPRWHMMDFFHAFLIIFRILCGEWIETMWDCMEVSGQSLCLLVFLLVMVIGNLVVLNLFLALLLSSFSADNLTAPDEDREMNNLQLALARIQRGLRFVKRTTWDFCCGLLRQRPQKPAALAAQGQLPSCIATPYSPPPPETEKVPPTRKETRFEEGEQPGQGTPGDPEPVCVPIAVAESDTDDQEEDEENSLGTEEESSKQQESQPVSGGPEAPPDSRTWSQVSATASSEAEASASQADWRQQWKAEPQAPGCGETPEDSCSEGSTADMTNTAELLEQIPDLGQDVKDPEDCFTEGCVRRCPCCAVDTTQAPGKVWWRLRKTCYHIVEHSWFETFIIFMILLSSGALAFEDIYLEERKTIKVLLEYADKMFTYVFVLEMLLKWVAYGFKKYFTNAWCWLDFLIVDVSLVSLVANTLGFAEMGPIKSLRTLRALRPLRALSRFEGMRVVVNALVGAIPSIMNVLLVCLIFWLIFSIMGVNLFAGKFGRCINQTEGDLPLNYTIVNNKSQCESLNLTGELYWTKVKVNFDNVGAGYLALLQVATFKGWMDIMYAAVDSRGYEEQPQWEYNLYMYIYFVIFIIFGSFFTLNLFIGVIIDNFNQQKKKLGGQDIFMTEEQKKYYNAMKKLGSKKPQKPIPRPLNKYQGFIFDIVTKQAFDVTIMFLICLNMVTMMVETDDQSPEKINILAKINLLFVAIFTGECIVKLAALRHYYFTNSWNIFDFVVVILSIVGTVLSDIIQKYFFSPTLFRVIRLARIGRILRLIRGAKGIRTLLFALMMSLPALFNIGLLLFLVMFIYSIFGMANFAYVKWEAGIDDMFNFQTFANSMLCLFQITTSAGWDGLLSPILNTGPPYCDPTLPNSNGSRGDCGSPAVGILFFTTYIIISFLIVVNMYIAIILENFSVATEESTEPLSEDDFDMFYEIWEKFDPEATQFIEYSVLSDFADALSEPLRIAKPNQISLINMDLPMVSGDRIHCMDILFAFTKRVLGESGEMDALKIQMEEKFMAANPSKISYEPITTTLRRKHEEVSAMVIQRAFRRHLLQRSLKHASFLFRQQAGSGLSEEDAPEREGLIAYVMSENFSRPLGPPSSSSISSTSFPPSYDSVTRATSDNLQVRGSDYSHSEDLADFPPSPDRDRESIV
Sequence of Vascular endothelial growth factor receptor 2 (P35968 whole entry): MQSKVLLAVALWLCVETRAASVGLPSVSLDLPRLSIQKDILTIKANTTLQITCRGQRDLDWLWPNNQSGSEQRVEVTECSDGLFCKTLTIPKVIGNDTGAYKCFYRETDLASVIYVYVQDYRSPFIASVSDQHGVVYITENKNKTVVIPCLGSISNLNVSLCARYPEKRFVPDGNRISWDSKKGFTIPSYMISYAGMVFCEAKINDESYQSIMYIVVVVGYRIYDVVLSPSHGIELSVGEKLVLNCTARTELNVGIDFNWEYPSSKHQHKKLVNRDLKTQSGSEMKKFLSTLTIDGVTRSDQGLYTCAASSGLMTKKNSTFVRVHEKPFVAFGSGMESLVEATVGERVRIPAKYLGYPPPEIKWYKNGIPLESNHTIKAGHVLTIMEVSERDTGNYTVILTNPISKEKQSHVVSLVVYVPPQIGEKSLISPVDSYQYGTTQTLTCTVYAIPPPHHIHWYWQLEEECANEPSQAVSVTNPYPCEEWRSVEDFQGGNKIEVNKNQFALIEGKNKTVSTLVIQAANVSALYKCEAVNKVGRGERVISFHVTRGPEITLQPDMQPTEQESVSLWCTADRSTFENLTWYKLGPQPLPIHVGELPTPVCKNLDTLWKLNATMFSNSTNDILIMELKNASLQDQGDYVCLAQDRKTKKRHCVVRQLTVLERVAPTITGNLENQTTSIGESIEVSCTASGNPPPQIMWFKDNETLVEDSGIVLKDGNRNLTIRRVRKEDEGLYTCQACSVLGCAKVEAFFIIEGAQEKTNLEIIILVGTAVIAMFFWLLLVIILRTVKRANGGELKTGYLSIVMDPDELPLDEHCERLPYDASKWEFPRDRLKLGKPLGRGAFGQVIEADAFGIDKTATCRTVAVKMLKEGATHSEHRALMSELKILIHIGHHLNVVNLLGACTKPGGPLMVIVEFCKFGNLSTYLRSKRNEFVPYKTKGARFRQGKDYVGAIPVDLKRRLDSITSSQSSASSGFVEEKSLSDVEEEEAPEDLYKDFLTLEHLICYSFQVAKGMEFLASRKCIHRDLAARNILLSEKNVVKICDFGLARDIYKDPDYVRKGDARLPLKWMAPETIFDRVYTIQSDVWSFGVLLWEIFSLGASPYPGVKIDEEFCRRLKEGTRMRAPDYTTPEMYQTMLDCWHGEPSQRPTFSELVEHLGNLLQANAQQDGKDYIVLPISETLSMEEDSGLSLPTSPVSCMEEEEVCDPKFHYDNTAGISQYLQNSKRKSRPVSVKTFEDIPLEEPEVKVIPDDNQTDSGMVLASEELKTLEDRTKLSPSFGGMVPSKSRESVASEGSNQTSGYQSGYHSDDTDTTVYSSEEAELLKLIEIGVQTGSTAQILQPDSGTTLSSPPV

- AC50 [1]: > 30 µM
SMILES: CCCC(=O)N1CCCN(c2nc(N)c3cc(OC)c(OC)cc3n2)CC1 [BUNAZOSIN]

SMILES: O=C(Nc1ccccc1)OCC(CN1CCCCC1)OC(=O)Nc1ccccc1 (stereo unspecified) [DIPERODON]
- AC50 [2]: > 10000 nM
- AC50 [3]: > 10000 nM
- AC50 [4]: > 10 µM
- AC50 [5]: > 30 µM
- AC50 [6]: > 30 µM
- AC50 [7]: > 30 µM

- AC50 [8]: > 30 µM
SMILES: CC(C(O)c1ccc(O)cc1)N1CCC(Cc2ccccc2)CC1 (stereo unspecified) [IFENPRODIL]

- AC50 [8]: > 30 µM
SMILES: CN(CCCN1c2ccccc2CCc2ccccc21)CC(=O)c1ccc(Cl)cc1 [LOFEPRAMINE]

SMILES: CC(=O)O[C@]1(C(C)=O)CC[C@H]2[C@@H]3C[C@H](C)C4=CC(=O)CC[C@]4(C)[C@H]3CC[C@@]21C [MEDROXYPROGESTERONE ACETATE]
- AC50 [9]: > 30 µM
- AC50 [10]: > 30 µM

- AC50 [2]: 589 nM
- AC50 [3]: 823 nM
- AC50 [4]: > 10 µM
SMILES: CN(C)CCCN1c2ccccc2Sc2ccccc21 [PROMAZINE]

SMILES: O=P(O)(O)C(O)(Cc1cccnc1)P(=O)(O)O [RISEDRONIC ACID]
- AC50 [11]: > 30 µM

SMILES: O=C1CCC(N2C(=O)c3ccccc3C2=O)C(=O)N1 (stereo unspecified) [THALIDOMIDE]
- AC50 [12]: > 10 µM

— ChEMBL document CHEMBL5291721, “A preclinical secondary pharmacology resource illuminates target-adverse drug reaction associations of marketed drugs” (Nat Commun, 2023)
